Reference: patent US10624910B2, “Thrombin-like enzyme for reducing a side effect of an anticancer drug” (priority 2007, dated 2020)
Marks after values point to notes of the source that are not given here.

Tests used:
Assay type in all cases: in vivo
C57BL/6 Mice = experiment: Reducing effect of batroxobin on bone marrow suppression caused by adriamycin; details: ADM 3 mg/kg i.p. (+ batroxobin 30 BU/kg i.p.) once every other day; after 9th administration
Source text: (§1) The thrombin-like enzyme, batroxobin (hereinafter referred to as DF-521) was used, which is manufactured by Beijing Tobishi Pharmaceutical Co., Ltd. (Beijing, China) with a trade name of Dong Ling Di Fu.
The anticancer drug, adriamycin (hereinafter referred to as ADM) was used, which is manufactured by Hualian Pharmaceutical Factory of Shanghai Pharmaceutical Group Co., Ltd.
The laboratory animals, C57BL/6 Mice (weight: 19-22 g) were divided into three groups: control group, adriamycin group (ADM group), and adriamycin+batroxobin (ADM+DF-521 group), with 5-10 mice (n=5 or 10) in one group. The control group was given physiological saline once every other day. The adriamycin group was given an intraperitoneal dose of 3 mg/kg of adriamycin once every other day. The adriamycin+batroxobin group was given an intraperitoneal doses of 3 mg/kg of adriamycin and 30 BU/kg of batroxobin simultaneously, once every other day. After the 9th administration, the experiment was terminated, and the blood was collected from the femoral artery under ether anesthesia using the EDTA anticoagulant. Then, the WBC, RBC counts and Hb value were measured.
Furthermore, the bone marrow nuclear cell (BMNC) count per femur of a mouse was measured with the following procedure. The bone marrow was sampled from 2 femora of a mouse, bone marrow was flushed with the 2 ml physiological saline, and made the bone marrow cell suspension. Twenty of marrow cell suspension was put into 380 μl of 3% acetic acid solution. After the red blood cells were destroyed, the hemocytometer was used for counting the BMNC count under the microscope. Then the BMNC count per femur was calculated.
The above-mentioned BMNC, RBC, WBC counts and Hb value were used as an evaluation index for bone marrow suppression caused by adriamycin.

male C57BL/6 mice [1] = experiment: Reducing effect of batroxobin on lethal toxicity caused by adriamycin; details: ADM 3 mg/kg i.p. (+ batroxobin 30 BU/kg i.p.) once every other day, 18 times; 41th day after first dose
Source text: as §1
The anticancer drug, adriamycin (hereinafter referred to as ADM) was used, which is manufactured by Hualian Pharmaceutical Factory of Shanghai Pharmaceutical (Group) Co., Ltd.
The laboratory animals, male C57BL/6 mice (weight: 19-22 g) were divided into three groups: control group, adriamycin group (ADM group), and adriamycin+batroxobin group (ADM+DF-521 group), with 10 mice in each group. The control group was administered with physiological saline.
The adriamycin group was given an intraperitoneal dose (3 mg/kg) of adriamycin once every other day. The adriamycin+batroxobin group was given a simultaneous dosage of 3 mg/kg of adriamycin and 30 BU/kg of batroxobin intraperitoneally, once every other day. The drug administration was performed in total of 18 times. The experiment was terminated on the 41th day after the first dose administered. The number of deaths was totaled, and the survival rate was calculated from mortality rate.

[2] = system: C57BL/6 male mice inoculated with B16-BL6 murine malignant melanoma cells; experiment: Reducing effect of batroxobin on cardiotoxicity caused by adriamycin (H&E histopathology of left ventricular myocardial tissue); details: batroxobin 20 BU/kg i.p. once a day and/or adriamycin 3 mg/kg i.p. once interval of 2 days; after 20 days
Source text: as §1
The anticancer drug, adriamycin (hereinafter referred to as ADM) was used, which is manufactured by Shenzhen Main Luck Pharmaceuticals Inc.
The laboratory animals, C57BL/6 male mice (weight: 16-18 g) were divided into 4 groups: 10 mice in the control group, 7 mice in the batroxobin group, 7 mice in the adriamycin group, and 7 mice in the adriamycin+batroxobin group. Mice from each group were inoculated with a dorsal right lateral subcutaneous injection of 3×10^6 B16-BL6 murine malignant melanoma cells in 0.3 ml of tumor cell suspension. After one day of tumor cell inoculation, the control group was given an intraperitoneal injuction of physiological saline once a day; the batroxobin group was given an intraperitoneal injection of batroxobin (20 BU/kg) once a day; the adriamycin group was given an intraperitoneal injection of adriamycin (3 mg/kg) once interval of 2 days; the adriamycin+batroxobin group was given an intraperitoneal injection of adriamycin (3 mg/kg) once interval of 2 days and an intraperitoneal injection of 20 BU/kg batroxobin once a day after administration of adriamycin. […]

male C57BL/6 mice [3] = experiment: Reducing effect of batroxobin on bone marrow suppression caused by cyclophosphamide; details: CPA 100 mg/kg i.p. (+ batroxobin 30 BU/kg i.p.) once every other day; after fourth administration (7 days)
Source text: as §1
The anticancer chug, cyclophosphamide (hereinafter referred to as CPA) was used, which is manufactured by Shanxi Powerdone Pharmaceutical Co., Ltd.
The laboratory animals, male C57BL/6 mice (weight: […] were divided into three groups: control group, cyclophosphamide group (CPA group), and cyclophosphamide+batroxobin group (CPA+DF-521 group), with five mice in one group. The control group was given physiological saline once every other day. The cyclophosphamide group was given an intraperitoneal dose of 100 mg/kg of cyclophosphamide once every other day. The cyclophosphamide+batroxobin group was given an intraperitoneal dose of 100 mg/kg of cyclophosphamide and 30 BU/kg of batroxobin simultaneously, once every other day. After the fourth administration (7 days after the first administration), blood was collected from the femoral artery under ether anesthesia using the EDTA anticoagulant, and the white blood cell count (WBC), red blood cell count (RBC), hemoglobin value (Hb), and platelet count (Plt) was measured.
The bone marrow nuclear cell count (BMNC) per femur of a mouse was measured by the following procedure. Bone marrow was sampled from 2 femora of a mouse, the marrow was flushed with 2 ml of physiological saline, and made the bone marrow cell suspension. Twenty μl of bone marrow cell suspension was put into […] of 3% acetic acid solution. After the red blood cells were destroyed, the hemocytometer was used for counting the BMNC count under the microscope. Then the BMNC count per femur was calculated.
The above-mentioned BMNC, WBC, RBC, Plt counts and Hb value are used as an evaluation index for bone marrow suppression caused by cyclophosphamide.

male C57BL/6 mice [4] = experiment: Reducing effect of batroxobin on bone marrow suppression caused by cisplatin; details: DDP 0.8 mg/kg i.p. (+ batroxobin 30 BU/kg i.p.) once every other day; after 17th administration (33rd day)
Source text: as §1
The anticancer drug, cisplatin (hereinafter referred to as DDP) was used, which is manufactured by Yunnan Gejiu Biochemical Pharmaceutical Co., Ltd.
The laboratory animals, male C57BL/6 Mice (weight: 20-22 g) were divided into 3 groups: control group, cisplatin group (DDP group), and cisplatin+batroxobin group (DDP+DF-521 group); with 10 mice in one group. The control group was given physiological saline once every other day. The cisplatin group was given an intraperitoneal dose of 0.8 mg/kg of cisplatin once every other day. The cisplatin+batroxobin group was given an intraperitoneal dose of 0.8 mg/kg of cisplatin and 30 BU/kg of batroxobin simultaneously, once every other day. After the 17th administration (33rd day after the first administration), the experiment was terminated, blood was collected from the femoral artery under ether anesthesia using the anticoagulant EDTA, and the WBC, RBC, Plt counts and Hb value, were measured.
Furthermore the bone marrow nuclear cell (BMNC) count per femur of a mouse was measured by the following procedure. Bone marrow was sampled from 2 femora of a mouse, the bone marrow was flushed with the 2 ml physiological saline, and made bone marrow cell suspension. Twenty μl of marrow cell suspension was put into 380 μl of 3% acetic acid solution. After the red blood cells were destroyed, the hemocytometer was used for counting the BMNC count under the microscope. Then, the BMNC count per femur was calculated.
The above-mentioned BMNC, WBC, RBC, Plt counts and Hb value were used as an evaluation index for bone marrow suppression caused by cisplatin.

Dog (mongrel) = experiment: Acute toxicity of batroxobin (i.v.), dog
Protocol: (§2) The thrombin-like enzyme, batroxobin is used in the present agent. The acute toxicity (LD50 (BU/kg)) of batroxobin on mice, rats, rabbits and dogs is as follows in Table 1. The acute toxicity test was assessed by the intravenous administration of batroxobin.

Rabbit (NW) = experiment: Acute toxicity of batroxobin (i.v.), rabbit
Protocol: as §2

Rat (Wistar) = experiment: Acute toxicity of batroxobin (i.v.), rat
Protocol: as §2

Mouse (ddy) = experiment: Acute toxicity of batroxobin (i.v.), mouse
Protocol: as §2

For `COc1cccc2c1C(=O)c1c(O)c3c(c(O)c1C2=O)C[C@@](O)(C(=O)CO)C[C@@H]3O[C@H]1C[C@H](N)[C@H](O)[C@H](C)O1` [ADM, adriamycin], the BMNC (C57BL/6 Mice) was 6.9 ± 1.6 ×10^6/bone, the Hb (C57BL/6 Mice) was 94.9 ± 30.5 g/L and the RBC (C57BL/6 Mice) was 6.6 ± 1.5 ×10^12/L. For the same molecule, the WBC (C57BL/6 Mice) was 3.4 ± 0.7 ×10^9/L, the “Survival No/Total No” value (male C57BL/6 mice [1]) was 4/10* and the survival rate % (male C57BL/6 mice [1]) was “(40%)”. The “Pathological findings in left ventricular myocardial tissue (H&E) compared to control group” value [2] was “abnormalities were observed”.
For `O=P1(N(CCCl)CCCl)NCCCO1` (stereo not shown) [CPA, cyclophosphamide], the BMNC (male C57BL/6 mice [3]) was 2.4 ± 0.4 ×10^6/bone, the Hb (male C57BL/6 mice [3]) was 98.8 ± 9.2 g/L and the Plt (male C57BL/6 mice [3]) was 1081.6 ± 47.4 ×10^9/L. The RBC (male C57BL/6 mice [3]) was 6.2 ± 0.5 ×10^12/L and the WBC (male C57BL/6 mice [3]) was 0.8 ± 0.3 ×10^9/L.
For `N.N.[Cl][Pt][Cl]` [DDP, cisplatin], the BMNC (male C57BL/6 mice [4]) was 11.3 ± 2.6 ×10^6/bone, the Hb (male C57BL/6 mice [4]) was 121.6 ± 10.7 g/L and the Plt (male C57BL/6 mice [4]) was 1059.2 ± 241.5 ×10^9/L. For the same molecule, the RBC (male C57BL/6 mice [4]) was 7.4 ± 0.8 ×10^12/L and the WBC (male C57BL/6 mice [4]) was 6.1 ± 2.2 ×10^9/L.
In the case of batroxobin, the “LD50 Value” (Dog (mongrel)) was 190~208 BU/kg, the “LD50 Value” (Rabbit (NW)) was greater than 300 BU/kg and the “LD50 Value” (Rat (Wistar)) was 105~110 BU/kg. The “Pathological findings in left ventricular myocardial tissue (H&E) compared to control group” value [2] was “abnormalities were not observed” and the “LD50 Value” (Mouse (ddy)) was 192~210 BU/kg.
